We go through seven compounds from patent US20100222285A1, “METHOD OF CONTROLLING THE PROLIFERATION OF VASCULAR ENDOTHELIAL CELLS AND INHIBITING LUMEN FORMATION” (Rare Sugar Production Technical Research Laboratories, LLC, priority 2004, published 2010).

In data set [1] the test system is human endothelial cells and fibroblasts. Briefly: Experiment of luminal formation: concurrent culture, CD31 staining, area of the lumen. In kind it is cell-based. The following applies: for effect on the luminal formation: Example 1, 0.1-20 mM; for effect on the luminal formation of HUVEC: Example 2 (36 species), incubation for 10 days; for antagonism of the luminal formation inhibitory effect by D-glucose: co-existence of 20 mM D-glucose; for inhibition of the acceleration of luminal formation by VEGF: with VEGF. On the procedure: Using a concurrent culture system of human endothelial cells and fibroblasts planted on a 24-well plate (Kurabo Co., Osaka, Japan), the culture medium was replaced by culture media containing a variety of additives at the early stage of luminal formation. Every 3 days, the medium was exchanged with the additive; 10 day after incubation, the endothelial cell only was stained by using mouse anti-human CD31 antibody (Kurabo Co., Osaka, Japan), goat anti-mouse IgG AlkP Conjugate (Kurabo Co., Osaka, Japan), and BCPI (5-bromo-4-chloro-3-indolyl phosphate) (Kurabo Co., Osaka, Japan) to photograph. The visualized area of the lumen was measured by means of NIH image software.

Data set [2] concerns Human umbilical cord vascular endothelial cells (HUVEC). Put plainly: Experiment of growth: HUVEC cell number by WST-8 after 48 hrs. In kind it is cell-based. The following applies: for inhibition at 20000 µM: 20 mM, read-out: inhibition of growth to the control group; for antagonism of the growth inhibitory effect by D-glucose: co-existence of 20 mM D-glucose. On the procedure:
Human umbilical cord vascular endothelial cells (HUVEC) were purchased as primary cultured cells from KURABO (Kurabo Co., Osaka, Japan) and the cells up to P8 were used in experiments. The cells were inoculated on a 96-well plate at a rate of 3000 cells/well, and allowed to stand in Humedia EG2 (Kurabo) overnight (37° C., 5% CO2). Next morning, the medium was replaced by 90 μl of 2% FBS-containing Humedia EB2 (Kurabo), to which was then added 10 μl of additive, and after a lapse of 48 hrs the number of cells was counted. No medium was exchanged during this period. In counting, a tetrazolium salt WST-8 was added to each well (0.5 mM), and after 2 hrs the absorbance was measured at 450 nm. The tetrazolium salt added was reduced with an intracellular dehydrogenase to yield formazan depending on the number of cells in the well. In advance, the absorbance at 450 nm was confirmed to show a linearity within the range of 500 to 12000 cells in the well.
(Tetrazolium assays rely on reduction of a dye to a coloured formazan, in cell work by metabolically active cells.)

Data set [3] in a line: Basic safety tests (mutagenicity, biodegradable test, 3 acute toxicity tests). As to conditions: oral acute toxicity, skin and ophthalmic primary irritation, by a designated organ. The text has this: The most important and highest hurdle in the development of approved drugs/quasi drugs or foods is to confirm safety of the rare sugar as a new substance. As the most basic safety tests, mutagenicity, biodegradable test and 3 acute toxicity tests (oral acute toxicity test, skin primary irritation test, ophthalmic primary irritation test) are decided. Since rare sugars are monosaccharides naturally occurring in very small quantities, it is necessary to examine exactly, though they are expected to be safe. We requested of a designated organ to examine the basic safety test on 3 species of rare sugars, i.e., D-psicose, D-allose and allitol. As a result, it was confirmed that there was no problem in any of the rare sugars.

Data set [4] concerns HUVEC. Put plainly: 14C-glucose up-take in vascular endothelial cell. The following applies: sugars 20 mM (2 mM for 2DG), 48 hours; for effect on the glucose up-take of HUVEC: both culture media ([GLU]=0.1 mM and 4.5 mM), VEGF 10 ng/mL; for effect on the glucose up-take accelerated by VEGF: with VEGF 10 ng/mL. The format is cell-based, human. On the procedure: Most of the physiological actions of monosaccharides are likely to be caused by the structural similarity to D-glucose, and one of the mechanisms is considered to be an influence on glucose metabolism. Then, in order to elucidate the influence on metabolism, the effect of HUVEC on the glucose up-take was examined for FRU, ALO, PSI, ALL, 2DG, MAN, and GAL. ^14C-Glucose was added to a culture medium, and the incorporated amount after 48 hours was counted by a scintillation counter. HUVEC was inoculated on a 24-well plate at a rate of 12000 cells/well. The medium was allowed to stand in 400 μL of Humedia EB2+2% FBS overnight. Next day, the medium was replaced by a medium containing ^14C-glucose. The medium used in replacement was the total 400 μL/well of medium containing ^14C-glucose (360 μL)+saline/VEGF (20 μL)+saline/RS (20 μL). The stock solution of ^14C-glucose 100 Bq/μL saline was diluted 10-fold with 2% FBS-containing medium (glucose-free or low glucose) to give a culture medium of 10 Bq/μL. The experiment was carried out on a lower glucose medium (final concentration [GLU]=0.1 mM) and on a high glucose medium ([GLU]=4.5 mM). ^14C-glucose was added at 3600 Bq/well. Further, FRU: D-fructose, ALO: D-allose, PSI: D-psicose, ALL: allitol, 2DG: 2-deoxy glucose, MAN: D-mannose, or GAL: D-galactose was added to the medium as an additive at 20 mM (provided 2 mM for 2DC). Irritation for growth was also carried out with VEGF (10 ng/mL). After a lapse of 48 hours, the well was washed twice with PBS, to which was then added 200 μL of 2% Triton, of which 180 μL was used as a sample for scintillation counter. The incorporation of ^14C-glucose into the HUVEC cells was calculated from the count in each well in the unit of nmol/well and depicted in a graph.

For data set [5] the following is noted: in an aqueous solution; cited from earlier work.
The mark [6] stands for this setting: Example 2 (36 species), 48 hours.

“Also recorded” adds a separate entry of the source.

For `O=C[C@H](O)[C@H](O)[C@H](O)[C@H](O)CO` [A, D-allose], in data set [1] (10 days), the “effect on the luminal formation” value was “effect was confirmed”. Further, in data set [1], the “effect on the luminal formation of HUVEC” value is “inhibitory effect was observed”, the “antagonism of the luminal formation inhibitory effect by D-glucose” value was “no apparent effect” and the “inhibition of the acceleration of luminal formation by VEGF” value is “inhibit the acceleration by VEGF”. In data set [1] (Homo sapiens, 20 mM), the inhibition at 20000 µM lay in the range of 50 to 80%. In addition, the “effect on the growth of HUVEC” value in data set [2] (Example 1, 0.1-20 mM, 48 hrs) is given as “effect was confirmed”. Besides, in data set [2] (setting [6]), the “effect on the growth of HUVEC” value was “inhibitory effect was observed”. Besides, in data set [2] (Homo sapiens, HUVEC, 48 hrs), the inhibition at 20000 µM fell in the range of 40 to 80%. The “antagonism of the growth inhibitory effect by D-glucose” value in data set [2] is “antagonized”. The “result of the basic safety test” value in data set [3] is given as “no problem”. For the same compound, in data set [4], the “effect on the glucose up-take of HUVEC” value was “inhibitory effect” and the “effect on the glucose up-take accelerated by VEGF” value (shortened to “effect … by VEGF”) is given as “inhibited”.

On to VEGF, for which the “luminal area in comparison to the control group” value in data set [1] (10 ng/mL, 10 days) turned out to be 2.8±0.6 times. For the same compound, the “cell number in comparison with the control group” value in data set [2] (10 ng/mL, 48 hrs) is 1.7±0.5 times. In addition, the “effect on the glucose up-take of HUVEC” value in data set [4] is given as “accelerated”.

Take `O=C(CO)[C@H](O)[C@H](O)[C@H](O)CO` [PSI, D-psicose]: the “effect on the growth of HUVEC” value in data set [2] (setting [6]) is listed as “no remarkable effect”. The “result of the basic safety test” value in data set [3] is “no problem”.

For `O=C[C@H](O)[C@@H](O)[C@H](O)[C@H](O)CO` [D-glucose], the “effect on the luminal formation” value in data set [1] (10 days) was “does not inhibit”. Further, the “effect on the growth of HUVEC” value in data set [2] (Example 1, 0.1-20 mM, 48 hrs) is listed as “no difference; also recorded: does not inhibit”. In addition, the “share of the chair type C1” value in data set [5] is ~100%.

As for `O=CC[C@@H](O)[C@H](O)[C@H](O)CO` [2DG, 2-deoxy-D-glucose], the “effect on the luminal formation” value in data set [1] (10 days) was “effect was confirmed”; in data set [1] (10 days, listed as 2-deoxy-D-glucose), “inhibit both”. Moreover, the “effect on the luminal formation of HUVEC” value in data set [1] is listed as “inhibitory effect was observed; also recorded: much stronger action”. Also, in data set [1] (Homo sapiens, 0.1 mM), testing at 100 µM gave an inhibition of 70%. Further, the inhibition at 500 µM in data set [1] (Homo sapiens, 0.5 mM) was found to be 95%. For the same compound, the “antagonism of the luminal formation inhibitory effect by D-glucose” value in data set [1] was “antagonized”. In addition, the “inhibition of the acceleration of luminal formation by VEGF” value in data set [1] is “inhibit the acceleration by VEGF”. Further, the “effect on the growth of HUVEC” value in data set [2] (Example 1, 0.1-20 mM, 48 hrs) was “effect was confirmed”; in data set [2] (Example 1, 0.1-20 mM, 48 hrs, listed as 2-deoxy-D-glucose), “inhibit both”; in data set [2] (setting [6]), “inhibitory effect was observed; also recorded: particularly strong action”. The compound also returned an inhibition at 1000 µM in data set [2] (Homo sapiens, HUVEC, 1 mM, 48 hrs) of 70%. Besides, the “antagonism of the growth inhibitory effect by D-glucose” value in data set [2] is reported as “no antagonism”. For the same compound, the “effect on the glucose up-take of HUVEC” value in data set [4] is on record as “inhibitory effect”. Further, the “effect … by VEGF” value in data set [4] was “inhibited”.

On to `O=C[C@@H](O)[C@@H](O)[C@H](O)[C@H](O)CO` [MAN, D-mannose], for which the “effect on the luminal formation” value in data set [1] (10 days) is reported as “no influence”. Moreover, the “effect on the growth of HUVEC” value is given as “effect was confirmed; also recorded: inhibitory effect for growth” in data set [2] (Example 1, 0.1-20 mM, 48 hrs) and “inhibitory effect was observed” in data set [2] (setting [6]). The inhibition at 20000 µM in data set [2] (Homo sapiens, HUVEC, 48 hrs) lay in the range of 40 to 80%. In addition, the “antagonism of the growth inhibitory effect by D-glucose” value in data set [2] was “antagonized”. Moreover, the “effect on the glucose up-take of HUVEC” value in data set [4] is recorded as “inhibitory effect”. Also, the “effect … by VEGF” value in data set [4] was “inhibited”.

Regarding `OC[C@@H](O)[C@@H](O)[C@@H](O)[C@@H](O)CO` [allitol], the “result of the basic safety test” value in data set [3] was “no problem”.

As usually defined, the inhibition is the percentage by which the read-out fell short of the control.
